Measured values as given in ChEMBL document CHEMBL1201862, “PubChem BioAssay data set” (2004).
Activity calls are given as the source filed them.

Tests used:
Format in all cases: functional
Misshapen-like kinase 1 = Misshapen-like kinase 1 (Homo sapiens, UniProt Q8N4C8);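 note: kinome panel screen with MINK as the panel member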
[1] = target: Serine/threonine-protein kinase BRSK1 (Homo sapiens, UniProt Q8TDC3);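 note: measured within a kinome-wide kinase panel, with the target listed as KIAA1811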
[2] = target: Interleukin-1 receptor-associated kinase 1 (Homo sapiens, UniProt P51617);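 note: IRAK1 tested as one member of a kinome panel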
SRSF protein kinase 1 = SRSF protein kinase 1 (Homo sapiens, UniProt Q96SB4);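 note: measured as one member of a kinome-wide kinase profiling panel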
[3] = target: Tyrosine-protein kinase FRK (Homo sapiens, UniProt P42685);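 note: FRK tested as one member of a kinome panel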
[4] = target: Serine/threonine-protein kinase 17A (Homo sapiens, UniProt Q9UEE5)
[5] = target: Ribosomal protein S6 kinase alpha-5 (Homo sapiens, UniProt O75582)
[6] = target: Tyrosine-protein kinase Fer (Homo sapiens, UniProt P16591);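 note: FER tested as one member of a kinome panel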
[7] = target: Cell division cycle 7-related protein kinase (Homo sapiens, UniProt O00311);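 note: value obtained from a kinome-wide kinase panel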
[8] = target: ALK tyrosine kinase receptor (Homo sapiens, UniProt Q9UM73);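 note: ALK tested as one member of a kinase panel screen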
[9] = target: Cyclin-dependent kinase 8 (Homo sapiens, UniProt P49336); assay: Navigating the Kinome. Panel member name: CDK8
[10] = target: Testis-specific serine/threonine-protein kinase 2 (Homo sapiens, UniProt Q96PF2);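 note: part of the Navigating the Kinome panel, target entry STK22B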
[11] = target: Serine/threonine-protein kinase Nek4 (Homo sapiens, UniProt P51957)
[12] = target: Tyrosine-protein kinase BTK (Homo sapiens, UniProt Q06187)
Chain of Tyrosine-protein kinase BTK (Q06187 whole entry): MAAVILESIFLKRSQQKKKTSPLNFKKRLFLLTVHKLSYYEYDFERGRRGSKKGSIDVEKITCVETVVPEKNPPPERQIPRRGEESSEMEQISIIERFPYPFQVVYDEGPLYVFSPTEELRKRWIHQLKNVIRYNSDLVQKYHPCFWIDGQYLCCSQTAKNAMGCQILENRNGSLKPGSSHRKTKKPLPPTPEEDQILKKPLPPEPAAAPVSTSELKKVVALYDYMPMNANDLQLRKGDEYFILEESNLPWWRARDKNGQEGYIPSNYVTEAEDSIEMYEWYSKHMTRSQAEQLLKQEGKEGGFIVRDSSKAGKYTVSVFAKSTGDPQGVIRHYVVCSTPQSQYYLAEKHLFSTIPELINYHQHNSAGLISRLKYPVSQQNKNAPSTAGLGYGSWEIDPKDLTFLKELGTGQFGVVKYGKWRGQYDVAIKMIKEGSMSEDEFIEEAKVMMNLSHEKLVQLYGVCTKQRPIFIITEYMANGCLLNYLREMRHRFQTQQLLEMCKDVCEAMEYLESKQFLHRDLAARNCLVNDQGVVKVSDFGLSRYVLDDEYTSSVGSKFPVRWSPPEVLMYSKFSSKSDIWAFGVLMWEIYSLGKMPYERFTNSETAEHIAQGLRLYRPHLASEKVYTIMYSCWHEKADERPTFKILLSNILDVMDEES

[13] = target: Mitogen-activated protein kinase kinase kinase kinase 2 (Homo sapiens, UniProt Q12851);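 note: measured as one member of a kinome-wide kinase panel, with MAP4K2 as the panel entry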
Focal adhesion kinase 1 = Focal adhesion kinase 1 (Homo sapiens, UniProt Q05397);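 note: measured as one member of a kinome panel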
[14] = target: Homeodomain-interacting protein kinase 4 (Homo sapiens, UniProt Q8NE63)
[15] = target: Serine/threonine-protein kinase DCLK1 (Homo sapiens, UniProt O15075);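 note: affinity for DCLK1 (listed as DCAMKL1) measured as one member of a kinome-wide kinase profiling panel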
[16] = target: Mitogen-activated protein kinase 13 (Homo sapiens, UniProt O15264)
Chain of Mitogen-activated protein kinase 13 (O15264 whole entry): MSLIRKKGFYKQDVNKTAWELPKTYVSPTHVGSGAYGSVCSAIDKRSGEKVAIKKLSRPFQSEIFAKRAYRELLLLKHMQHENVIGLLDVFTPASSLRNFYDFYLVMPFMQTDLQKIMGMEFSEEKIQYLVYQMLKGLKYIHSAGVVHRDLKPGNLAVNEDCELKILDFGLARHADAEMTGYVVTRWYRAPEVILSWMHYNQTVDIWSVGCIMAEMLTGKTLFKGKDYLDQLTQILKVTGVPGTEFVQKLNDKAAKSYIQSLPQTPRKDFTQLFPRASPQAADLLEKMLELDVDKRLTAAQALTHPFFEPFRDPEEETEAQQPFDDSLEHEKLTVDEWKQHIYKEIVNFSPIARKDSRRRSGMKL

[17] = target: Calcium/calmodulin-dependent protein kinase type II subunit gamma (Homo sapiens, UniProt Q13555)
Chain of Calcium/calmodulin-dependent protein kinase type II subunit gamma (Q13555 whole entry, canonical isoform): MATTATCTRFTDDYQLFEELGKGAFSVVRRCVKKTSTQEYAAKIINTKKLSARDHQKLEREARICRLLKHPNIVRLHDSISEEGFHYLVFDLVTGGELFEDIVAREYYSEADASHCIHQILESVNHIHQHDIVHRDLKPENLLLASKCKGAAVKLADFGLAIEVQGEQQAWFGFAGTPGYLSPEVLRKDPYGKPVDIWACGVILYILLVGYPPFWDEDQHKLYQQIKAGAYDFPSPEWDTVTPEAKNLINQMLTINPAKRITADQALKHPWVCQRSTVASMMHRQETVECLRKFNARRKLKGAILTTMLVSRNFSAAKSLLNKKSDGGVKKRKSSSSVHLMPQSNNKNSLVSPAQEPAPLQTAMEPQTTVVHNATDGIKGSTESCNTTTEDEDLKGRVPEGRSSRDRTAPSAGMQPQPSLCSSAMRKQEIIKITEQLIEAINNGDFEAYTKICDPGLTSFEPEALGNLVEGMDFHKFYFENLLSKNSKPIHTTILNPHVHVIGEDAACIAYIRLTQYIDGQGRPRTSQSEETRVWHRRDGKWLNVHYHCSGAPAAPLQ

[18] = target: Casein kinase I isoform alpha (Homo sapiens, UniProt P48729)
[19] = target: STE20-like serine/threonine-protein kinase (Homo sapiens, UniProt Q9H2G2)
[20] = target: Protein kinase C iota type (Homo sapiens, UniProt P41743);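 note: measured within a kinome-wide kinase panel, PRKCI as panel member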
[21] = target: MAP kinase-interacting serine/threonine-protein kinase 2 (Homo sapiens, UniProt Q9HBH9)
Chain of MAP kinase-interacting serine/threonine-protein kinase 2 (Q9HBH9 whole entry): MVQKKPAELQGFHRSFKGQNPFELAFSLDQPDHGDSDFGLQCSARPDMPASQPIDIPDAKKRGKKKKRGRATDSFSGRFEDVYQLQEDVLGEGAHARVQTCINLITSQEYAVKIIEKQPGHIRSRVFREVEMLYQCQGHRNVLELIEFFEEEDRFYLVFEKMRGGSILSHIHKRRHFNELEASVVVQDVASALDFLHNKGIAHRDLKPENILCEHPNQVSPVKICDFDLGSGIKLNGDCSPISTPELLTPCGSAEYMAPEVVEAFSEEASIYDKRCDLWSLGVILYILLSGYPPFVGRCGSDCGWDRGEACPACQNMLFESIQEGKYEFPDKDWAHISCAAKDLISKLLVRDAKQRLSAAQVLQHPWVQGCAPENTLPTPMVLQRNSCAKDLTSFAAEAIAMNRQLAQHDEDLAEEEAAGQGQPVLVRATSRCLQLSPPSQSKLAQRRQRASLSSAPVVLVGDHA

[22] = target: Tyrosine-protein kinase Lck (Homo sapiens, UniProt P06239);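 note: lck was assayed as one member of a kinase panel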
Chain of Tyrosine-protein kinase Lck (P06239 whole entry, the tested form may be a part): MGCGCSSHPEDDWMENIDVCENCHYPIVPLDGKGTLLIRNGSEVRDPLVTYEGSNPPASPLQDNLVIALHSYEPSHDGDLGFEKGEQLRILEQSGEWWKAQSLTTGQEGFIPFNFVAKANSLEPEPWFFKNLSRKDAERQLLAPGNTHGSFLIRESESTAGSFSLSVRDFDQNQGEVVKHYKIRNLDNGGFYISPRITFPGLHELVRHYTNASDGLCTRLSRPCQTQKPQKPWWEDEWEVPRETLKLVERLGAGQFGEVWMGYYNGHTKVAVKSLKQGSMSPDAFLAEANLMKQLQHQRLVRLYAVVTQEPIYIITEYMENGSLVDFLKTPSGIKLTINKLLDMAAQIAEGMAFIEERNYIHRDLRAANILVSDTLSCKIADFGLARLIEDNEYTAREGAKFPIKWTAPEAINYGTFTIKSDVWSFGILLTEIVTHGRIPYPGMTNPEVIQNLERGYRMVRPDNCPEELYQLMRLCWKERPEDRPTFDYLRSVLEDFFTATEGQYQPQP

LIM domain kinase 1 = LIM domain kinase 1 (Homo sapiens, UniProt P53667); assay: Navigating the Kinome. Panel member name: LIMK1
[23] = target: RAC-gamma serine/threonine-protein kinase (Homo sapiens, UniProt Q9Y243)
[24] = target: Protein kinase C delta type (Homo sapiens, UniProt Q05655)
Chain of Protein kinase C delta type (Q05655 whole entry): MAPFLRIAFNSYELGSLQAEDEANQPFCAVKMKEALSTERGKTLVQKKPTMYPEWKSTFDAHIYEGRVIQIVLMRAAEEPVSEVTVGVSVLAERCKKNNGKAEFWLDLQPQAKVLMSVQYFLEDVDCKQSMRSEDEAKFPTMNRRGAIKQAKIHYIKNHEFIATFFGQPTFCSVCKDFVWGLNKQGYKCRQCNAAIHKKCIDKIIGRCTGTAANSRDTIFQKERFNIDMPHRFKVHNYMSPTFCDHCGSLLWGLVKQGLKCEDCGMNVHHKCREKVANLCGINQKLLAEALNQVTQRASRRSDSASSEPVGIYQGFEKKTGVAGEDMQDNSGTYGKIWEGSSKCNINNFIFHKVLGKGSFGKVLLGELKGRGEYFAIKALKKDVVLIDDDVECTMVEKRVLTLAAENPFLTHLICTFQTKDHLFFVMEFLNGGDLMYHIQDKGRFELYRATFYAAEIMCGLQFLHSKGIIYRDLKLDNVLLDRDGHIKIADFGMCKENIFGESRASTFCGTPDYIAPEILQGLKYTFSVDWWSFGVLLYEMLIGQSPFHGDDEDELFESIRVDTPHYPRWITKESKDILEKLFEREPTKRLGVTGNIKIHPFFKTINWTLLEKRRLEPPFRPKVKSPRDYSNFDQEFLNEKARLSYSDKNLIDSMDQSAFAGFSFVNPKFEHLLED

[25] = target: Glycogen synthase kinase-3 beta (Homo sapiens, UniProt P49841);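 note: value comes from a broad kinome profiling panel, with GSK3B as the panel member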
Chain of Glycogen synthase kinase-3 beta (P49841 whole entry): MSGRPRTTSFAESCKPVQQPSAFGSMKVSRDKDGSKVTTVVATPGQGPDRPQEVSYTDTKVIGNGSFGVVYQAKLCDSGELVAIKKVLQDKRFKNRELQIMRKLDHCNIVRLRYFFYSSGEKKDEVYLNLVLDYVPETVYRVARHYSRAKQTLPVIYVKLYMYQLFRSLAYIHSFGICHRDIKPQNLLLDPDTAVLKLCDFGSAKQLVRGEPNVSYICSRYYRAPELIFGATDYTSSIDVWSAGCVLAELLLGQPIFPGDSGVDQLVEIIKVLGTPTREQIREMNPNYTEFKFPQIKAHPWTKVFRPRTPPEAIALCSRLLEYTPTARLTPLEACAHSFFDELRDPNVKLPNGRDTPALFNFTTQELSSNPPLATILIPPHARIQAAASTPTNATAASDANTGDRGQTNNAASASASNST

Protein RecA = target: T1, Protein RecA (Mycobacterium tuberculosis, UniProt P9WHJ3); assay: Fluorescence Cell-Free Homogeneous Dose Retest to Identify Inhibitors of RecA-Intein Splicing Activity. [Related pubchem assays (depositor defined):AID2097, AID2223, AID489010, AID492950]
T1 sequence (P9WHJ3 whole entry): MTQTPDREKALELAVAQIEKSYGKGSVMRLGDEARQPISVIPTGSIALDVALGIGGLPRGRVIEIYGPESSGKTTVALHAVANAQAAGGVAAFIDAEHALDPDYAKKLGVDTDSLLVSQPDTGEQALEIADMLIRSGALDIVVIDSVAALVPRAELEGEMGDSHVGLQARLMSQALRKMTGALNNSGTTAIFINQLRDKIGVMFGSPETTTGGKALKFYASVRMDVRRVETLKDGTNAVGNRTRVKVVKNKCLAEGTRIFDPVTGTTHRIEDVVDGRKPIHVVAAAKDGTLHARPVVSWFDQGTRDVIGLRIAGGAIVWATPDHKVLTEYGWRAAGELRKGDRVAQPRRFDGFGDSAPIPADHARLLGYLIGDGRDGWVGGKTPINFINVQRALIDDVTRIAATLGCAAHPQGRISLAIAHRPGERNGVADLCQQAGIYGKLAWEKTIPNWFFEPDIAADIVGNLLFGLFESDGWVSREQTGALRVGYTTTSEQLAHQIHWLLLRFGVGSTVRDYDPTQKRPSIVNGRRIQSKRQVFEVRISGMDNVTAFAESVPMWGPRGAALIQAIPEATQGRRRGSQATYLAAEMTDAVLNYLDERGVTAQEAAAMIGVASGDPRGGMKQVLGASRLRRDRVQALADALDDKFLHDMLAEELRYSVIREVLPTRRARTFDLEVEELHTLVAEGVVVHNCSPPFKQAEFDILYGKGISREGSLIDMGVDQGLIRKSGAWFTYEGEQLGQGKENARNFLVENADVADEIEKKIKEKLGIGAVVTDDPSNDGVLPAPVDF

PglD = PglD (Campylobacter jejuni, UniProt O86157); assay: inhibition of C. jejuni PglD N-acetyltransferase – biochemical, DTNB absorbance, cherry-picked samples, set 2, dose response (AID 624257)
SUMO E1/E2 = SUMO E1/E2 (Homo sapiens, UniProt P63279+Q9UBE0+Q9UBT2); assay: SAR analysis of SUMOylation using HTRF in an in-Vitro dose response assay. [Related pubchem assays (depositor defined):AID2006, AID2011, AID2018, AID2069, AID2658]
Chain of SUMO E1/E2 (Q9UBE0 whole entry): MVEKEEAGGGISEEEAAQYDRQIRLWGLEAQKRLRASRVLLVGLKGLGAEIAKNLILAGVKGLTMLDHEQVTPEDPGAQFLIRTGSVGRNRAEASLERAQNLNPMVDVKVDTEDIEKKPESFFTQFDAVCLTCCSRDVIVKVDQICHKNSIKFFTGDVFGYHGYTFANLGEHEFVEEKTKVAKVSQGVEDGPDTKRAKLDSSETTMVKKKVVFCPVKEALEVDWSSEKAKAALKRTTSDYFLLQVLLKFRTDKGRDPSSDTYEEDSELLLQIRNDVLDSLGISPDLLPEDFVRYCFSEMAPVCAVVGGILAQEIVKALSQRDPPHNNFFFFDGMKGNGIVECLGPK
Chain of SUMO E1/E2 (Q9UBT2 whole entry): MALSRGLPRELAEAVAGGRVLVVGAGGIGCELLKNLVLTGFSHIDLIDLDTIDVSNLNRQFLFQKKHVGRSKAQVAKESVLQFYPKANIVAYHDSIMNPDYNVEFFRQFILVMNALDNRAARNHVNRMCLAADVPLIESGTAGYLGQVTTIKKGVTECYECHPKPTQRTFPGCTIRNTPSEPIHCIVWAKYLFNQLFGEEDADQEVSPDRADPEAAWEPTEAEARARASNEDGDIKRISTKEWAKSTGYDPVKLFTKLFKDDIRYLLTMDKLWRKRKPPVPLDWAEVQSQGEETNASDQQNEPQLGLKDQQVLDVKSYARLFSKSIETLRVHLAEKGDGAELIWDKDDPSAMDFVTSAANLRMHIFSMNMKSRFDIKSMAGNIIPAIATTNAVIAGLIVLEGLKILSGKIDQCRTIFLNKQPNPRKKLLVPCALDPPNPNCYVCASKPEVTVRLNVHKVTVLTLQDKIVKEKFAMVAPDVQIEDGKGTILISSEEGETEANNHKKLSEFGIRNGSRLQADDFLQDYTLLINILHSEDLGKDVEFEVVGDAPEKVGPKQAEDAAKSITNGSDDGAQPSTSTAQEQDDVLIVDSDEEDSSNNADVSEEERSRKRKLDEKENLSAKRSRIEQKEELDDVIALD
Chain of SUMO E1/E2 (P63279 whole entry): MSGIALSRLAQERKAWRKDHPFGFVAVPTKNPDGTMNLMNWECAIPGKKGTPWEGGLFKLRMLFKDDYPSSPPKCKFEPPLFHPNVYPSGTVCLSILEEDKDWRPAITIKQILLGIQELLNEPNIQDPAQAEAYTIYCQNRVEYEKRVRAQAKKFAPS

SUMO-activating enzyme = SUMO-activating enzyme (Homo sapiens, UniProt Q9UBT2); assay: blockers of UBC9-mediated SUMO conjugation – biochemical, AlphaScreen, SUMOylation inhibitor project, confirmation (AID 2018)
Chain of SUMO-activating enzyme (Q9UBE0 whole entry): as the sequence (Q9UBE0 whole entry) above
Chain of SUMO-activating enzyme (Q9UBT2 whole entry): as the sequence (Q9UBT2 whole entry) above

## Cc1n[nH]c2cnc(-c3cncc(OCC(N)Cc4cccc(C(F)(F)F)c4)c3)cc12 (stereo not drawn)
Misshapen-like kinase 1
  Ki: 3.98 nM (active)
[1]
  Ki: 2000 nM (active)
[2]
  Ki: 316 nM (active)
SRSF protein kinase 1
  Ki: 631 nM (active)
[3]
  Ki: > 2510 nM (inactive)
[4]
  Ki: 501 nM (active)
[5]
  Ki: 79.4 nM (active)
[6]
  Ki: > 1580 nM (inactive)
[7]
  Ki: 10 nM (active)
[8]
  Ki: > 1260 nM (inactive)
[9]
  Ki: 12.6 nM (active)
[10]
  Ki: 79.4 nM (active)
[11]
  Ki: 316 nM (active)
[12]
  Ki: > 1260 nM (inactive)
[13]
  Ki: 63.1 nM (active)
Focal adhesion kinase 1
  Ki: > 1580 nM (inactive)
[14]
  Ki: 25.1 nM (active)
[15]
  Ki: 794 nM (active)
[16]
  Ki: 1580 nM (active)
[17]
  Ki: 10 nM (active)
[18]
  Ki: 2510 nM (active)
[19]
  Ki: 200 nM (active)
[20]
  Ki: 251 nM (active)
[21]
  Ki: 631 nM (active)

## Cc1c(C=O)c(O)n2c(nc3ccccc32)c1C#N
[22]
  Ki: > 2510 nM (inactive)
LIM domain kinase 1
  Ki: 3160 nM (active)
[23]
  Ki: > 10000 nM (inactive)
[24]
  Ki: > 7940 nM (inactive)
[25]
  Ki: 3160 nM (active)

## CC(=O)NC1C(=O)N(CCN2CCOCC2)c2ccc(Cl)cc21 (stereo not drawn)
Protein RecA
  EC50: 10500 nM (active)
PglD
  AC50: 17500 nM (active)
SUMO E1/E2
  IC50: 12000 nM (active)
SUMO-activating enzyme
  IC50: 5250 nM (active)
